Test results from patent US20240368135A1 (VERTEX PHARMACEUTICALS INCORPORATED, priority 2021, published 2024).

Target: human NaV 1.8 (Homo sapiens, UniProt Q9Y5Y9)
Test: E-VIPR assay detecting and measuring NaV inhibition properties
Type: cell-based
Settings: HEK cells expressing truncated human NaV 1.8; no human serum; read-out: IC50 in the E-VIPR Assay
Summary of the method: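 Membrane potential was followed by coumarin/oxonol FRET during electrical field stimulation of matrigel-seeded HEK cells carrying truncated human NaV1.8 plus KIR2.1. Dosing used 11 points, 3-fold steps, top 300 nM final, 0.625% DMSO, with or without 25% human serum.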

Chain of human NaV 1.8 (Q9Y5Y9 126-399 limits assumed): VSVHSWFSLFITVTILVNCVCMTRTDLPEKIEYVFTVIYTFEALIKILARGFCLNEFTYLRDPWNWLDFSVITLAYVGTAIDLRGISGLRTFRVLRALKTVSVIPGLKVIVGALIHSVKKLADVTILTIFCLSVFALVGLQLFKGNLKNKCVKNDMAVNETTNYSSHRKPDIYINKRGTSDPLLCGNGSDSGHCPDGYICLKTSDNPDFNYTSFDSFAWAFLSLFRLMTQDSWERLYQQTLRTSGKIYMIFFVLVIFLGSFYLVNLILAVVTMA
Chain of human NaV 1.8 (Q9Y5Y9 660-890 limits assumed): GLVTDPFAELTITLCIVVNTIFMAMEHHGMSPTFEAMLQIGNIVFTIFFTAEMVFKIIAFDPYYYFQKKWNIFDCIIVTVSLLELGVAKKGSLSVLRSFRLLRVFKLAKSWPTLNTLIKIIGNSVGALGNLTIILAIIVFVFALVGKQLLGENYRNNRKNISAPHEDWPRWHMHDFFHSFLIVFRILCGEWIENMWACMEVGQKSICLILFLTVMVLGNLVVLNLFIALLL
Chain of human NaV 1.8 (Q9Y5Y9 1148-1722 limits assumed): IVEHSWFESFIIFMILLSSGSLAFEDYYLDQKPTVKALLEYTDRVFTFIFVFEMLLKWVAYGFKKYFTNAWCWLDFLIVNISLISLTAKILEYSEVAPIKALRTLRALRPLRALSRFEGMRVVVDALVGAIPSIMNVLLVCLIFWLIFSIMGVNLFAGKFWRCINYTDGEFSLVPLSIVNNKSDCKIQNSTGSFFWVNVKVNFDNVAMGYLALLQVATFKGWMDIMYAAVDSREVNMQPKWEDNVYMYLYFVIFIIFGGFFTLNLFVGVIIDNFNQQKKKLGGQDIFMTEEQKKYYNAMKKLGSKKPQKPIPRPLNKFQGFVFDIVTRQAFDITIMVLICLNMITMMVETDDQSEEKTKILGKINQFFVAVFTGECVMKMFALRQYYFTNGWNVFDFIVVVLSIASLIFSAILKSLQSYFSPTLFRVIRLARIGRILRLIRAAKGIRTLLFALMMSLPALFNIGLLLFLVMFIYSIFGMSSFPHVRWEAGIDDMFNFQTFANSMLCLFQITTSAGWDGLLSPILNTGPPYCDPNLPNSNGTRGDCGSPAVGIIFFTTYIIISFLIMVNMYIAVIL

Compound | IC50 [nM]
COc1c([C@H]2[C@H](C(=O)NCc3cc(C(N)=O)co3)O[C@@](C)(C(F)(F)F)[C@H]2C)ccc(F)c1F [Compound 286, 5-(((2R,3S,4S,5R)-3-(3,4-difluoro-2-methoxyphenyl)-4,5-dimethyl-5-(trifluoromethyl)tetrahydrofuran-2-carboxamido)methyl)furan-3-carboxamide] | ≥ 1000
COc1c([C@H]2[C@H](C(=O)NCCc3c(C)noc3C)O[C@@](C)(C(F)(F)F)[C@H]2C)ccc(F)c1F [Compound 287, (2R,3S,4S,5R)-3-(3,4-difluoro-2-methoxyphenyl)-N-(2-(3,5-dimethylisoxazol-4-yl)ethyl)-4,5-dimethyl-5-(trifluoromethyl)tetrahydrofuran-2-carboxamide] | ≥ 1000
COCc1cc(CNC(=O)[C@@H]2O[C@@](C)(C(F)(F)F)[C@@H](C)[C@H]2c2ccc(F)c(F)c2OC)n[nH]1 [Compound 288, (2R,3S,4S,5R)-3-(3,4-difluoro-2-methoxyphenyl)-N-((5-(methoxymethyl)-1H-pyrazol-3-yl)methyl)-4,5-dimethyl-5-(trifluoromethyl)tetrahydrofuran-2-carboxamide] | ≥ 1000
COc1c([C@H]2[C@H](C(=O)NCc3nc(C(C)C)no3)O[C@@](C)(C(F)(F)F)[C@H]2C)ccc(F)c1F [Compound 289, (2R,3S,4S,5R)-3-(3,4-difluoro-2-methoxyphenyl)-N-((3-isopropyl-1,2,4-oxadiazol-5-yl)methyl)-4,5-dimethyl-5-(trifluoromethyl)tetrahydrofuran-2-carboxamide] | ≥ 1000
COc1c([C@H]2[C@H](C(=O)NCC3CN(C)C(=O)CO3)O[C@@](C)(C(F)(F)F)[C@H]2C)ccc(F)c1F (stereo partly drawn) [Compound 290, (2R,3S,4S,5R)-3-(3,4-difluoro-2-methoxyphenyl)-4,5-dimethyl-N-((4-methyl-5-oxomorpholin-2-yl)methyl)-5-(trifluoromethyl)tetrahydrofuran-2-carboxamide] | ≥ 1000
COc1c([C@H]2[C@H](C(=O)NC3(Cc4ccccc4)CC3)O[C@@](C)(C(F)(F)F)[C@H]2C)ccc(F)c1F [Compound 291, (2R,3S,4S,5R)-N-(1-benzylcyclopropyl)-3-(3,4-difluoro-2-methoxyphenyl)-4,5-dimethyl-5-(trifluoromethyl)tetrahydrofuran-2-carboxamide] | ≥ 1000
COc1c([C@H]2[C@H](C(=O)Nc3cc(C)nn3CCC#N)O[C@@](C)(C(F)(F)F)[C@H]2C)ccc(F)c1F [Compound 292, (2R,3S,4S,5R)-N-(1-(2-cyanoethyl)-3-methyl-1H-pyrazol-5-yl)-3-(3,4-difluoro-2-methoxyphenyl)-4,5-dimethyl-5-(trifluoromethyl)tetrahydrofuran-2-carboxamide] | ≥ 1000
COc1c([C@H]2[C@H](C(=O)NCC(C)N3CCN(C)CC3)O[C@@](C)(C(F)(F)F)[C@H]2C)ccc(F)c1F (stereo partly drawn) [Compound 293, (2R,3S,4S,5R)-3-(3,4-difluoro-2-methoxyphenyl)-4,5-dimethyl-N-(2-(4-methylpiperazin-1-yl)propyl)-5-(trifluoromethyl)tetrahydrofuran-2-carboxamide] | ≥ 1000
COc1c([C@H]2[C@H](C(=O)NCc3ccc4ncccc4c3)O[C@@](C)(C(F)(F)F)[C@H]2C)ccc(F)c1F [Compound 294, (2R,3S,4S,5R)-3-(3,4-difluoro-2-methoxyphenyl)-4,5-dimethyl-N-(quinolin-6-ylmethyl)-5-(trifluoromethyl)tetrahydrofuran-2-carboxamide] | ≥ 1000
COc1c([C@H]2[C@H](C(=O)NC(C)c3cnn(C)c3)O[C@@](C)(C(F)(F)F)[C@H]2C)ccc(F)c1F (stereo partly drawn) [Compound 296, (2R,3S,4S,5R)-3-(3,4-difluoro-2-methoxyphenyl)-4,5-dimethyl-N-(1-(1-methyl-1H-pyrazol-4-yl)ethyl)-5-(trifluoromethyl)tetrahydrofuran-2-carboxamide] | ≥ 1000
COc1c([C@H]2[C@H](C(=O)NC(C)C(=O)NC3CC3)O[C@@](C)(C(F)(F)F)[C@H]2C)ccc(F)c1F (stereo partly drawn) [Compound 297, (2R,3S,4S,5R)-N-(1-(cyclopropylamino)-1-oxopropan-2-yl)-3-(3,4-difluoro-2-methoxyphenyl)-4,5-dimethyl-5-(trifluoromethyl)tetrahydrofuran-2-carboxamide] | ≥ 1000
COc1c([C@H]2[C@H](C(=O)NC3CCN(C(C)=O)C3)O[C@@](C)(C(F)(F)F)[C@H]2C)ccc(F)c1F (stereo partly drawn) [Compound 298, (2R,3S,4S,5R)-N-(1-acetylpyrrolidin-3-yl)-3-(3,4-difluoro-2-methoxyphenyl)-4,5-dimethyl-5-(trifluoromethyl)tetrahydrofuran-2-carboxamide] | ≥ 1000
COc1c([C@H]2[C@H](C(=O)NC3CCCCNC3=O)O[C@@](C)(C(F)(F)F)[C@H]2C)ccc(F)c1F (stereo partly drawn) [Compound 299, (2R,3S,4S,5R)-3-(3,4-difluoro-2-methoxyphenyl)-4,5-dimethyl-N-(2-oxoazepan-3-yl)-5-(trifluoromethyl)tetrahydrofuran-2-carboxamide] | ≥ 1000
COc1c([C@H]2[C@H](C(=O)NCC3(C)CCOCC3)O[C@@](C)(C(F)(F)F)[C@H]2C)ccc(F)c1F [Compound 300, (2R,3S,4S,5R)-3-(3,4-difluoro-2-methoxyphenyl)-4,5-dimethyl-N-((4-methyltetrahydro-2H-pyran-4-yl)methyl)-5-(trifluoromethyl)tetrahydrofuran-2-carboxamide] | ≥ 1000
COc1c([C@H]2[C@H](C(=O)NCC(O)c3cnn(C)c3)O[C@@](C)(C(F)(F)F)[C@H]2C)ccc(F)c1F (stereo partly drawn) [Compound 301, (2R,3S,4S,5R)-3-(3,4-difluoro-2-methoxyphenyl)-N-(2-hydroxy-2-(1-methyl-1H-pyrazol-4-yl)ethyl)-4,5-dimethyl-5-(trifluoromethyl)tetrahydrofuran-2-carboxamide] | ≥ 1000
COc1c([C@H]2[C@H](C(=O)NCCN3CCNC(=O)C3)O[C@@](C)(C(F)(F)F)[C@H]2C)ccc(F)c1F [Compound 302, (2R,3S,4S,5R)-3-(3,4-difluoro-2-methoxyphenyl)-4,5-dimethyl-N-(2-(3-oxopiperazin-1-yl)ethyl)-5-(trifluoromethyl)tetrahydrofuran-2-carboxamide] | ≥ 1000

Second part, the molecule after the results:

IC50 [nM] | Compound
≥ 1000 | COc1c([C@H]2[C@H](C(=O)NC3CCN(C(N)=O)CC3)O[C@@](C)(C(F)(F)F)[C@H]2C)ccc(F)c1F [Compound 303, 4-((2R,3S,4S,5R)-3-(3,4-difluoro-2-methoxyphenyl)-4,5-dimethyl-5-(trifluoromethyl)tetrahydrofuran-2-carboxamido)piperidine-1-carboxamide]
≥ 1000 | COc1c([C@H]2[C@H](C(=O)NCC(=O)N3CCOCC3)O[C@@](C)(C(F)(F)F)[C@H]2C)ccc(F)c1F [Compound 304, (2R,3S,4S,5R)-3-(3,4-difluoro-2-methoxyphenyl)-4,5-dimethyl-N-(2-morpholino-2-oxoethyl)-5-(trifluoromethyl)tetrahydrofuran-2-carboxamide]
≥ 1000 | COc1c([C@H]2[C@H](C(=O)NCC3(c4ccccc4)CC3)O[C@@](C)(C(F)(F)F)[C@H]2C)ccc(F)c1F [Compound 305, (2R,3S,4S,5R)-3-(3,4-difluoro-2-methoxyphenyl)-4,5-dimethyl-N-((1-phenylcyclopropyl)methyl)-5-(trifluoromethyl)tetrahydrofuran-2-carboxamide]
≥ 1000 | COc1c([C@H]2[C@H](C(=O)NC3(c4ccccc4)COC3)O[C@@](C)(C(F)(F)F)[C@H]2C)ccc(F)c1F [Compound 306, (2R,3S,4S,5R)-3-(3,4-difluoro-2-methoxyphenyl)-4,5-dimethyl-N-(3-phenyloxetan-3-yl)-5-(trifluoromethyl)tetrahydrofuran-2-carboxamide]
≥ 1000 | COc1c([C@H]2[C@H](C(=O)NC3CN(S(C)(=O)=O)C3)O[C@@](C)(C(F)(F)F)[C@H]2C)ccc(F)c1F [Compound 307, (2R,3S,4S,5R)-3-(3,4-difluoro-2-methoxyphenyl)-4,5-dimethyl-N-(1-(methylsulfonyl)azetidin-3-yl)-5-(trifluoromethyl)tetrahydrofuran-2-carboxamide]
≥ 1000 | COc1c([C@H]2[C@H](C(=O)NC(C)c3ccc(C)c(F)c3)O[C@@](C)(C(F)(F)F)[C@H]2C)ccc(F)c1F (stereo partly drawn) [Compound 308, (2R,3S,4S,5R)-3-(3,4-difluoro-2-methoxyphenyl)-N-(1-(3-fluoro-4-methylphenyl)ethyl)-4,5-dimethyl-5-(trifluoromethyl)tetrahydrofuran-2-carboxamide]
≥ 1000 | COc1c([C@H]2[C@H](C(=O)NC3CS(=O)(=O)C3)O[C@@](C)(C(F)(F)F)[C@H]2C)ccc(F)c1F [Compound 309, (2R,3S,4S,5R)-3-(3,4-difluoro-2-methoxyphenyl)-N-(1,1-dioxidothietan-3-yl)-4,5-dimethyl-5-(trifluoromethyl)tetrahydrofuran-2-carboxamide]
10 to 100 | COc1c([C@H]2[C@H](C(=O)Nc3ccnc(C4(N)COC4)n3)O[C@@](C)(C(F)(F)F)[C@H]2C)ccc(F)c1F [Compound 310, (2R,3S,4S,5R)-N-[2-(3-aminooxetan-3-yl)pyrimidin-4-yl]-3-(3,4-difluoro-2-methoxy-phenyl)-4,5-dimethyl-5-(trifluoromethyl)tetrahydrofuran-2-carboxamide]
< 10 | COc1c([C@H]2[C@H](C(=O)Nc3cn(C(F)F)nc3C)O[C@@](C)(C(F)(F)F)[C@H]2C)ccc(F)c1F [Compound 311, (2R,3S,4S,5R)-3-(3,4-difluoro-2-methoxyphenyl)-N-(1-(difluoromethyl)-3-methyl-1H-pyrazol-4-yl)-4,5-dimethyl-5-(trifluoromethyl)tetrahydrofuran-2-carboxamide]
10 to 100 | COc1c([C@H]2[C@H](C(=O)Nc3ccnc(N4CCN(C)CC4)c3)O[C@@](C)(C(F)(F)F)[C@H]2C)ccc(F)c1F [Compound 312, (2R,3S,4S,5R)-3-(3,4-difluoro-2-methoxyphenyl)-4,5-dimethyl-N-(2-(4-methylpiperazin-1-yl)pyridin-4-yl)-5-(trifluoromethyl)-tetrahydrofuran-2-carboxamide]
